Test: DSC thermal decomposition
Format: physicochemical
Conditions: decomposition temperature by DSC
Description: The optical and thermal properties of the pyridinium imine based dye compounds were studied. The dyes show high absorption at the desired wavelengths. In addition, the shape of the absorption spectra, that still remains critical to the disc reflectivity and formation of clean mark edges, are composed of one major band, comprised in a range of from 350 to 500 nm, preferably of from 350 to 400 nm. […] Sharp threshold of thermal decomposition within the required temperature range characterizes the new pyridinium imine based dyes which are assumed to be desirable for the application in optical layers for optical data recording. As a conclusion, the pyridinium imine based dye compounds are within the specifications which are primarily required by the industry for the use of dyes in optical data recording, in particular in the next-generation optical data recording media in the blue laser range.

Compound: CC[n+]1ccccc1N=CC1C(=O)NC(=O)NC1=O [Example 1]
- DSC (decomp.): 326 °C

From patent EP1624029A1, “New Pyridinium imine based dyes and their use in optical layers for optical data recording” (CLARIANT INTERNATIONAL LTD., priority 2004, dated 2006)
